Measured values: patent EP3015165A1, “MATERIAL AND METHOD FOR CAPTURING, DETECTING AND Q[…] SULPHUR COMPOUNDS” (priority 2014, dated 2016)
In brackets after ≈: the same amount, converted by molar mass.

Key:
[1] = couples H2S/HS^- et CH3SH/CH3S^-; cited from earlier work
[2] = [gas]/[liq], grandeur sans dimension; cited from earlier work
[3] = cited from earlier work
[4] = Solubility limit in ethanol; assay type: physicochemical; details: organic solvent or mixture, éthanol, read-out: limite de solubilité dans l'éthanol
Experimental: Le TMOS et l'éthanol sont mélangés dans un premier temps. Puis le volume désiré de DMPD à 0,5 M dans l'eau est introduit, suivi du volume désiré de FeCl3 à 0,5 M dans 0,267 M HCl. La quantité d'eau restante pour atteindre 1,44 mL suit l'ajout d'HCl provoquant un échauffement du sol qui est agité le temps de refroidir. Pour les formulations fortement dopées en DMPD, il est nécessaire de dissoudre la DMPD dans l'éthanol plutôt que dans l'eau. La limite de solubilité de la DMPD dans l'éthanol est de 21 mM.

[5] = Stability of the probe in solution as a function of pH; assay type: physicochemical; details: milieu basique, from pH 9 the disulphide bridge breaks by itself in a few hours
From the text: (§1) Or, en milieu acide, les VSC modèles, à savoir le sulfure d'hydrogène et le méthanethiol, sont peu solubles. La présente étude a donc été menée en solution à pH neutre et, par conséquent sur les formes déprotonées Na2S et (CH3)SNa des deux VSC modèles.

[6] = Kinetics of the probe-target reaction in aqueous solution at neutral pH; details: pH=7,4, target 50 µM and DTNB 5 µM (Figure 2A)
Experimental: as §1
Cette étude a montré que la cinétique de la réaction est suffisamment rapide pour envisager de l'employer dans un xérogel comme réaction de transduction : en moins de 5 min, l'équilibre est atteint (Figure 2A). On peut remarquer également que la réaction de détection du (CH3)SNa est moins rapide que celle de Na2S, avec en outre un moins bon rendement.

[7] = exposition prolongée à forte concentration; cited from earlier work

CS [CH3SH, méthanethiol]
pKa [1]: 12,0 | constante de Henry Hcc [2]: 1,23.10^-1 | solubilité dans l'eau [3]: 0,48 mol.L^-1

CN(C)c1ccc(N)cc1 [DMPD, N,N-diméthylparaphénylènediamine]
solubility [4]: 21 mM (≈ 2860 µg/mL)

O=C(O)c1cc(SSc2ccc([N+](=O)[O-])c(C(=O)O)c2)ccc1[N+](=O)[O-] [DTNB, acide 5,5'-dithiobis(2-nitrobenzoïque)]
stability in solution [5]: n'est pas stable | time to reach equilibrium of the reaction [6]: < 5 min

S [H2S, sulfure d'hydrogène]
concentration causing paralysie du nerf olfactif [7]: 100 à 150 ppm | pKa [1]: 7,0 | constante de Henry Hcc [2]: 4,09.10^-1
